Test results published in ChEMBL document CHEMBL5108051, “Improving the Antimicrobial Performance of Amphiphilic Cationic Antimicrobial Peptides Using Glutamic Acid Full-Scan and Positive Charge Compensation Strategies” (J Med Chem, 2022).
Converted amounts (≈) assume the structure as drawn. The source made the active and inactive calls. The rule behind the calls is not given here. Peptide text beside a SMILES is read from it.

How the values were obtained:
Escherichia coli [1] = experiment: Antibacterial activity against Escherichia coli ATCC 25922 assessed as growth inhibition measured after 18 to 24 hrs by CLSI based broth microdilution method; assay type: functional; details: time 18-24 hrs
Klebsiella pneumoniae = experiment: Antibacterial activity against Klebsiella pneumoniae ATCC 700603 assessed as growth inhibition measured after 18 to 24 hrs by CLSI based broth microdilution method; assay type: functional; details: time 18-24 hrs
Pseudomonas aeruginosa = experiment: Antibacterial activity against Pseudomonas aeruginosa ATCC 27853 assessed as growth inhibition measured after 18 to 24 hrs by CLSI based broth microdilution method; assay type: functional; details: time 18-24 hrs
Staphylococcus aureus [2] = experiment: Antibacterial activity against Staphylococcus aureus ATCC 25923 assessed as growth inhibition measured after 18 to 24 hrs by CLSI based broth microdilution method; assay type: functional; details: time 18-24 hrs
Bacillus subtilis = experiment: Antibacterial activity against Bacillus subtilis ATCC 23857 assessed as growth inhibition measured after 18 to 24 hrs by CLSI based broth microdilution method; assay type: functional; details: time 18-24 hrs
Cell membrane [3] = experiment: Induction of cell membrane disruption in Escherichia coli ATCC 25922 assessed as cell morphological damage measured after 30 mins by […] electron microscope analysis; assay type: subcellular
[4] = Stability of the compound in mouse serum at 10 mM assessed as half life by RP-HPLC analysis; assay type: ADME, cell-free
Cell membrane [5] = experiment: Induction of cell membrane disruption in Staphylococcus aureus ATCC 25923 assessed as cell morphological damage measured after 120 mins by […] electron microscope analysis; assay type: subcellular
Cell membrane [6] = experiment: Induction of cell membrane disruption in Escherichia coli ATCC 25922 assessed as cell morphological damage measured after 120 mins by […] electron microscope analysis; assay type: subcellular
Cell membrane [7] = experiment: Induction of cell membrane disruption in Escherichia coli ATCC 25922 assessed as increase in PI uptake measured after 30 to 120 mins by propidium iodide staining based FACS flow cytometry analysis (reference value: 6.0 %); assay type: subcellular; details: time 30-120 min
Cell membrane [8] = experiment: Induction of cell membrane disruption in Staphylococcus aureus ATCC 25923 assessed as increase in PI uptake measured after 30 to 120 mins by propidium iodide staining based FACS flow cytometry analysis (reference value: 15%); assay type: subcellular; details: time 30-120 min
Cell membrane [9] = experiment: Induction of outer membrane permeabilization to NPN in Staphylococcus aureus ATCC 25923 cells assessed as increase in fluorescence intensity measured within 1 min by NPN fluorescent dye based microplate reader assay; assay type: subcellular
Cell membrane [10] = experiment: Induction of outer membrane permeabilization to NPN in Escherichia coli ATCC 25922 cells assessed as increase in fluorescence intensity by NPN fluorescent dye based microplate reader assay; assay type: subcellular
Cell membrane [11] = experiment: Induction of inner membrane permeabilization in Escherichia coli ML-35 ATCC 43837 assessed as increase in absorbance at 1 to 4 times MIC measured at 420 nm in presence of ONPG by microplate reader assay; assay type: subcellular; details: DDE = dose-dependent effect
Cell membrane [12] = experiment: Induction of cytoplasmic membrane depolarization in Escherichia coli ATCC 25922 assessed as increase in fluorescence intensity measured within 1 min by DiSC3-5 dye based fluorescence method; assay type: subcellular
Escherichia coli [13] = experiment: Induction of cell membrane damage in Escherichia coli ATCC 25922 assessed as increase in nucleic acid leakage by microplate reader assay; assay type: functional, organism-based; details: time 0-6 hrs, TDE = time-dependent effect
Staphylococcus aureus [14] = experiment: Induction of cell membrane damage in Staphylococcus aureus ATCC 25923 assessed as increase in nucleic acid leakage by microplate reader assay; assay type: functional, organism-based; details: time 0-6 hrs, TDE = time-dependent effect
Staphylococcus aureus [15] = experiment: Antibacterial activity against Staphylococcus aureus ATCC 25923 assessed as resistance development measured after 15 passages at sub-MIC concentration by resistance development assay; assay type: functional, organism-based
Staphylococcus aureus [16] = experiment: Antibacterial activity against Staphylococcus aureus ATCC 25923 assessed as fractional inhibitory concentration index in presence of vancomycin by checkerboard assay; assay type: functional
Staphylococcus aureus [17] = experiment: Antibacterial activity against Staphylococcus aureus ATCC 25923 assessed as fractional inhibitory concentration index in presence of kanamycin by checkerboard assay; assay type: functional
Staphylococcus aureus [18] = experiment: Antibacterial activity against Staphylococcus aureus ATCC 25923 assessed as fractional inhibitory concentration index in presence of gentamicin by checkerboard assay; assay type: functional
Staphylococcus aureus [19] = experiment: Antibacterial activity against rifampin resistant Staphylococcus aureus ATCC 25923 assessed as fractional inhibitory concentration index in presence of rifampin by checkerboard assay; assay type: functional
Staphylococcus aureus [20] = experiment: Antibacterial activity against rifampin resistant Staphylococcus aureus ATCC 25923 assessed as fractional inhibitory concentration index in presence of vancomycin by checkerboard assay; assay type: functional
Staphylococcus aureus [21] = experiment: Antibacterial activity against rifampin resistant Staphylococcus aureus ATCC 25923 assessed as fractional inhibitory concentration index in presence of kanamycin by checkerboard assay; assay type: functional
Staphylococcus aureus [22] = experiment: Antibacterial activity against rifampin resistant Staphylococcus aureus ATCC 25923 assessed as fractional inhibitory concentration index in presence of gentamicin by checkerboard assay; assay type: functional
Staphylococcus aureus [23] = experiment: Antibacterial activity against gentamicin resistant Staphylococcus aureus ATCC 25923 assessed as fractional inhibitory concentration index in presence of rifampin by checkerboard assay; assay type: functional
Staphylococcus aureus [24] = experiment: Antibacterial activity against gentamicin resistant Staphylococcus aureus ATCC 25923 assessed as fractional inhibitory concentration index in presence of kanamycin by checkerboard assay; assay type: functional
Staphylococcus aureus [25] = experiment: Antibacterial activity against gentamicin resistant Staphylococcus aureus ATCC 25923 assessed as fractional inhibitory concentration index in presence of gentamicin by checkerboard assay; assay type: functional
Escherichia coli [26] = experiment: Antibacterial activity against Escherichia coli ATCC 25922 assessed as fractional inhibitory concentration index in presence of kanamycin by checkerboard assay; assay type: functional
Escherichia coli [27] = experiment: Antibacterial activity against rifampin resistant Escherichia coli ATCC 25922 assessed as fractional inhibitory concentration index in presence of rifampin by checkerboard assay; assay type: functional
Escherichia coli [28] = experiment: Antibacterial activity against rifampin resistant Escherichia coli ATCC 25922 assessed as fractional inhibitory concentration index in presence of kanamycin by checkerboard assay; assay type: functional
Escherichia coli [29] = experiment: Antibacterial activity against rifampin resistant Escherichia coli ATCC 25922 assessed as fractional inhibitory concentration index in presence of gentamicin by checkerboard assay; assay type: functional
Escherichia coli [30] = experiment: Antibacterial activity against gentamicin resistant Escherichia coli ATCC 25922 assessed as fractional inhibitory concentration index in presence of rifampin by checkerboard assay; assay type: functional
Escherichia coli [31] = experiment: Antibacterial activity against gentamicin resistant Escherichia coli ATCC 25922 assessed as fractional inhibitory concentration index in presence of vancomycin by checkerboard assay; assay type: functional
Escherichia coli [32] = experiment: Antibacterial activity against gentamicin resistant Escherichia coli ATCC 25922 assessed as fractional inhibitory concentration index in presence of kanamycin by checkerboard assay; assay type: functional
Escherichia coli [33] = experiment: Antibacterial activity against gentamicin resistant Escherichia coli ATCC 25922 assessed as fractional inhibitory concentration index in presence of gentamicin by checkerboard assay; assay type: functional
[34] = Acute toxicity in BALB/c mouse assessed as mortality at 80 mg/kg, ip administered as single dose measured for 7 days; assay type: organism-based; details: BALB/c, in vivo, time 7 day, read-out: Activity
Staphylococcus aureus [35] = experiment: In vivo antimicrobial activity against Staphylococcus aureus ATCC 25923 infected in BALB/C mouse pulmonary infection model at 5 to 10 mg/kg, ip; assay type: functional, organism-based; details: dose 5-10 mg/kg
[36] = Retention time of the compound by RP-HPLC analysis; assay type: physicochemical

## CC[C@H](C)[C@H](NC(=O)[C@@H]1CCCN1C(=O)[C@H](CC(C)C)NC(=O)[C@@H](N)Cc1ccccc1)C(=O)N[C@H](C(=O)N[C@@H](C)C(=O)N[C@@H](CCCCN)C(=O)N[C@@H](CC(C)C)C(=O)N[C@@H](CC(C)C)C(=O)N[C@@H](CO)C(=O)NCC(=O)N[C@@H](CC(C)C)C(=O)N[C@@H](CC(C)C)C(N)=O)C(C)C (H-FLPIVAKLLSGLL-NH2)
Escherichia coli [1]
  MIC: 32 µM (≈ 44.2 µg/mL)
Klebsiella pneumoniae
  MIC: > 128 µM
Pseudomonas aeruginosa
  MIC: 128 µM (≈ 177 µg/mL)
Staphylococcus aureus [2]
  MIC: 4 µM (≈ 5.53 µg/mL)
Bacillus subtilis
  MIC: 4 µM (≈ 5.53 µg/mL)
Cell membrane [3]
  Activity: Active
[4]
  half-life at 10000 µM: 5.55 h
Cell membrane [5]
  Activity: Active
Cell membrane [6]
  Activity: Active
Cell membrane [7]
  Activity: 78.3%
Cell membrane [8]
  Activity: 24.1%
Cell membrane [9]
  Activity: Active
Cell membrane [10]
  Activity: Active
Cell membrane [11]
  Activity: Dde
Cell membrane [12]
  Activity: Active
Escherichia coli [13]
  Activity: Tde
Staphylococcus aureus [14]
  Activity: Tde
Staphylococcus aureus [15]
  Activity: Active
Staphylococcus aureus [16]
  fractional inhibitory concentration index (FICI): 1.0625
Staphylococcus aureus [17]
  fractional inhibitory concentration index (FICI): 0.75
Staphylococcus aureus [18]
  fractional inhibitory concentration index (FICI): 1
Staphylococcus aureus [19]
  fractional inhibitory concentration index (FICI): 1
Staphylococcus aureus [20]
  fractional inhibitory concentration index (FICI): 0.75
Staphylococcus aureus [21]
  fractional inhibitory concentration index (FICI): 0.5625
Staphylococcus aureus [22]
  fractional inhibitory concentration index (FICI): 0.5625
Staphylococcus aureus [23]
  fractional inhibitory concentration index (FICI): 0.75
Staphylococcus aureus [24]
  fractional inhibitory concentration index (FICI): 0.75
Staphylococcus aureus [25]
  fractional inhibitory concentration index (FICI): 0.75
Escherichia coli [26]
  fractional inhibitory concentration index (FICI): 1.125
Escherichia coli [27]
  fractional inhibitory concentration index (FICI): 1
Escherichia coli [28]
  fractional inhibitory concentration index (FICI): 0.625
Escherichia coli [29]
  fractional inhibitory concentration index (FICI): 0.625
Escherichia coli [30]
  fractional inhibitory concentration index (FICI): 0.625
Escherichia coli [31]
  fractional inhibitory concentration index (FICI): 0.75
Escherichia coli [32]
  fractional inhibitory concentration index (FICI): 1
Escherichia coli [33]
  fractional inhibitory concentration index (FICI): 1
[34]
  mortality at 168 h: 100%
Staphylococcus aureus [35]
  Activity: Active
[36]
  Retention_time: 19.445 min
